What all share (type): in vivo
The subject of assay [1] is cTnT^R141W transgenic dilated cardiomyopathy mice model. The experiment in a line: Survival analysis of cTnT^R141W transgenic mice after long-term administration. Particulars: 75 mg/kg in drinking water for seven months. How it is done: The positive mice at 1.5 months old are distributed by weight and cardiac function uniformly into the model group and the ginsenoside Rb1 administration group according to the echocardiography result, and each group comprises twelve mice. Ginsenoside Rb1, 75 mg/kg (State Yao zhun Zi, Yun Nan Tean Na Pharmaceutical Co., Ltd) is put into animal drinking water, and continuously administered for seven months.
Individual death occurs in the feeding process of the cTnT^R141W transgenic mice model. From the beginning of administration to the observation endpoint, the death of animal of each group is recorded. The death of animal of the negative control group is zero, and the model group is four, and the ginsenoside Rb1 group is two.

Assay [2] has the same test system. The experiment in a line: Cardiac microstructure, HE and Masson staining, light microscope. Particulars: long-term administration, vs model group. The method, then:
Effects on the cardiac microstructure of the mice model after a long-term administration of ginsenoside Rb1 (HE and Masson staining)
1) Fix the heart and treated in a standard pathological procedure.
3) Composite staining solution for 5 min;
4) Slightly washed by 0.2% acetic acid solution;
5) 5% phosphotungstic acid for 5-10 min;
6) Immersion cleaning twice by 0.2% acetic acid solution;
7) Brilliant green staining solution for 5 min, immersion cleaning twice by 0.2% acetic acid solution;
8) Ethanol dehydration, xylene transparent and sealed with neutral gum;
9) Observed under light microscope, collagen fibers show green, muscle fibers show red and red blood cells show nacarat.

Assay [3] shares this test system. Put plainly: Cardiac gene expression, RT-PCR method. Particulars: cardiac tissue, long-term administration. How it is done: Effects on some cardiac gene expression of the mice model with dilated cardiomyopathy after a long-term administration of ginsenoside Rb1 (RT-PCR method)
1) Pulverize the tissue in liquid nitrogen, and then add 1 ml Trizol liquid into the 50-100 mg tissue;
2) Place the grinded liquid at RT for 5 min, add 0.2 ml chloroform into the grinded liquid, tightly cap the centrifuge tube, and violently vortex the centrifuge tube for 15 sec;
3) Remove 0.5 ml the upper transparent liquid into a new centrifuge tube, add 0.5 ml isopropanol, placed at RT for 10 min, and centrifugate at 4° C., 12000 g for 10 min;
4) Remove the supernatant, add 1 ml 75% ethanol and centrifugate at 4° C., 7500 g for 5 min;
5) Carefully remove the supernatant, then dried at RT for 5-10 min, and then dissolved in DEPC-treated water.
2. RT-PCR (Reverse Transcription—Polymerase Chain Reaction)
Add the above mixture into the tube in step 1), then incubated at 42° C. for 2 min;
3) Add 1 μl SuperScript, II RT at 42° C. for 50 min;
4) Placed on ice for 15 min;
5) Add 1 μl RNase H, then incubated at 37° C. for 20 min;
6) PCR reaction system is shown as follow:
7) General conditions of PCR are shown as follow. Pre-denaturation at 94° C. for […], and extension at 72° C. for […] And the annealing temperature, the annealing time, the primer sequences and the cyclic numbers are shown in Table 2.
wherein, Gapdh serves as the loading control.

`CC(C)=CCC[C@](C)(O[C@@H]1O[C@H](CO[C@@H]2O[C@H](CO)[C@@H](O)[C@H](O)[C@H]2O)[C@@H](O)[C@H](O)[C@H]1O)[C@H]1CC[C@]2(C)[C@@H]1[C@H](O)C[C@@H]1[C@@]3(C)CC[C@H](O[C@@H]4O[C@H](CO)[C@@H](O)[C@H](O)[C@H]4O[C@@H]4O[C@H](CO)[C@@H](O)[C@H](O)[C@H]4O)C(C)(C)[C@@H]3CC[C@]12C` [Rb1, ginsenoside Rb1]: in assay [1] (vs model group), the “mortality rate (survival analysis, FIG. 2)” value is given as “reduce the mortality rate”. For the same molecule, the “death of animal of the group (number)” value in assay [1] (group of twelve mice, model group four, negative control zero) is “two”. Also, the “proliferation of interstitial collagen” value in assay [2] (Masson staining) is “significantly decreased”. In assay [2] (light microscope), the “hypertrophy and disordered arrangement of the myocytes” value is given as “improved”. In assay [3], the “expression of Cx40” value is listed as “increase”, the “expression of E-cadherin” value is listed as “increase”, the “expression of Itga8” value is listed as “decrease” and the “expression of Itgbp” value is listed as “decrease”. Besides, the “expression of P-cadherin” value in assay [3] is listed as “increase”. For the same molecule, in assay [3] (FGF2, 7, 8, 10), the “expression of the fibroblast growth factor FGF” value is given as “improve”.

Values taken from US20110039793A1, “Application of ginsenoside Rb1 in preparing medicaments for treating dilated cardiomyopathy” (priority 2008, published 2011).
